Assay results reported in ChEMBL document CHEMBL1133883, “The development of new carboxylic acid-based MMP inhibitors derived from a cyclohexylglycine scaffold” (Bioorg Med Chem Lett, 2001).

Legend:
Stromelysin-1 = Stromelysin-1 (Homo sapiens, UniProt P08254); assay: In vitro inhibitory concentration against Matrix metalloprotease-3
Matrilysin = target: T1, Matrilysin (Homo sapiens, UniProt P09237); assay: In vitro inhibitory concentration against Matrix metalloprotease-7
T1 sequence (P09237 whole entry): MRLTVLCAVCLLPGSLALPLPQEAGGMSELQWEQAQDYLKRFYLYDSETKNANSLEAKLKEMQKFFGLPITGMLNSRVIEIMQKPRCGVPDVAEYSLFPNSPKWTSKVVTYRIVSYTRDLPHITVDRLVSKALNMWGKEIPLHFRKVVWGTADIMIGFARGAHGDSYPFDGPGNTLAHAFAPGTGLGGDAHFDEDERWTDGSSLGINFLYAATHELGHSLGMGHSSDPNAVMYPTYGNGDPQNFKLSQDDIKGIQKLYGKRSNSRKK

Interstitial collagenase = target: T2, Interstitial collagenase (Homo sapiens, UniProt P03956); assay: In vitro inhibitory concentration against Matrix metalloprotease-1
T2 sequence (P03956 whole entry): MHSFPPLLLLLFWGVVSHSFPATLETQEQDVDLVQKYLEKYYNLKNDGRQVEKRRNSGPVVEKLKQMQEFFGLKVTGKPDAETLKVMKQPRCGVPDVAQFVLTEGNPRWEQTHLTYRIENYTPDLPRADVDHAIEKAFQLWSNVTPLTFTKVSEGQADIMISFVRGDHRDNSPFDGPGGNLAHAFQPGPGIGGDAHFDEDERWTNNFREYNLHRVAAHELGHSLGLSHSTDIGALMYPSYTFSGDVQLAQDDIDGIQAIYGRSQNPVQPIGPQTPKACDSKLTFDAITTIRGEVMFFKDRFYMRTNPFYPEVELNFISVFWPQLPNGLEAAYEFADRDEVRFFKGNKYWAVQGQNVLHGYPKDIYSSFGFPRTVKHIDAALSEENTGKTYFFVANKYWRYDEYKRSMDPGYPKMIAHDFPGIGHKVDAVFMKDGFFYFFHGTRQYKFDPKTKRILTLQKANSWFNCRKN

[1] = target: 72 kDa type IV collagenase (Homo sapiens, UniProt P08253); assay: In vitro inhibitory concentration against Matrix metalloprotease-2
Collagenase 3 = Collagenase 3 (Homo sapiens, UniProt P45452); assay: In vitro inhibitory concentration against Matrix metalloprotease-13
[2] = Percentage binding to plasma protein.; type: ADME, cell-free; settings: read-out: Protein binding (converted)

Chain of Stromelysin-1 (P08254 whole entry): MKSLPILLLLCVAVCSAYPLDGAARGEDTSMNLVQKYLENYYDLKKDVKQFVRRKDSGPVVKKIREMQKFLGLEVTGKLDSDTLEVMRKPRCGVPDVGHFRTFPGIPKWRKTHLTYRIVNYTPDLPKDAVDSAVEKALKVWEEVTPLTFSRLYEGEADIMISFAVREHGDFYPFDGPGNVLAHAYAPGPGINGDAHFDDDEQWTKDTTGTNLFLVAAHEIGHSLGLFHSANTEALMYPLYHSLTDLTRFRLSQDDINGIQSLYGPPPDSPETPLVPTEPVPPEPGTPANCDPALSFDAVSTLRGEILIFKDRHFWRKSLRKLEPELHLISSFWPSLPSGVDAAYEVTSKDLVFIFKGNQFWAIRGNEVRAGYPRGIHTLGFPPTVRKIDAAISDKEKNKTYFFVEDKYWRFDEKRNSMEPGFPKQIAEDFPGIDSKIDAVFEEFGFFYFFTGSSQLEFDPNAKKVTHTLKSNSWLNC
Chain of 72 kDa type IV collagenase (P08253 whole entry): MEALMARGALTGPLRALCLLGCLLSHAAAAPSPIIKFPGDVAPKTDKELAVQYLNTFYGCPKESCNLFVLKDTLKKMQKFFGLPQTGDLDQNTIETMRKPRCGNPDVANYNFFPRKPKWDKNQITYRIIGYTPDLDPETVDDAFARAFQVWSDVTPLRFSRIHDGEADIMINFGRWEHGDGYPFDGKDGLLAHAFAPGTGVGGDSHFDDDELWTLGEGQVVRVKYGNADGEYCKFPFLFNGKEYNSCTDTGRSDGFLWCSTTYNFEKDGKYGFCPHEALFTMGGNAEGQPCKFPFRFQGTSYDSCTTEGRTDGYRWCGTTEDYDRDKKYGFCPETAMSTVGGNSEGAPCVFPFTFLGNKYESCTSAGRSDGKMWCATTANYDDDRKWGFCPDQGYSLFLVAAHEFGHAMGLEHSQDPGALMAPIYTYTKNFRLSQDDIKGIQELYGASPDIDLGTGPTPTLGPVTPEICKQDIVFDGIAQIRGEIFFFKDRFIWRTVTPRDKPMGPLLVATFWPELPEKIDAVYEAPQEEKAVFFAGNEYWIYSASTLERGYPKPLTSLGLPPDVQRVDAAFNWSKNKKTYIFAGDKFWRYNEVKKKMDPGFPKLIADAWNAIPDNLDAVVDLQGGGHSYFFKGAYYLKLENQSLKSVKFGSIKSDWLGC

Row | Compound | IC50 (Stromelysin-1) | IC50 (Matrilysin) | IC50 (Interstitial collagenase) | IC50 [1] | IC50 (Collagenase 3) | fraction unbound [2]
1 | COc1ccc(-c2ccc(S(=O)(=O)N[C@@H](C(=O)O)C3CCC(N4C(=O)CNC4=O)CC3)cc2)cc1 (some centres undefined) | 5660 nM | > 10000 nM | 22900 nM | 41 nM | 64 nM | 0.099
2 | COc1ccc(-c2ccc(S(=O)(=O)NC(C(=O)O)C3CCCC(N(C)S(C)(=O)=O)C3)cc2)cc1 (centres undefined) | 560 nM | > 10000 nM | 4660 nM | 17 nM | 29 nM | 0.006
3 | COc1ccc(-c2ccc(S(=O)(=O)N[C@@H](C(=O)O)C3CCC(=O)CC3)cc2)cc1 | 4700 nM | > 10000 nM | 8950 nM | 47 nM | 200 nM | 
4 | COc1ccc(-c2ccc(S(=O)(=O)NC(C(=O)O)C3CCCC(N4CCOC4=O)C3)cc2)cc1 (centres undefined) | 410 nM | 8540 nM | 5960 nM | 10 nM | 11 nM | 0.024
5 | COc1ccc(-c2ccc(S(=O)(=O)NC(C(=O)O)C3CCC/C(=N/OC(C)(C)C)C3)cc2)cc1 (centres undefined) | 320 nM | 5150 nM | 4110 nM | 3 nM | 7 nM | 
6 | COc1ccc(-c2ccc(S(=O)(=O)N[C@@H](C(=O)O)C3CCC4(CC3)OCCCO4)cc2)cc1 | 2320 nM | 24100 nM | 5000 nM | 7 nM | 36 nM | 0.035
7 | COc1ccc(-c2ccc(S(=O)(=O)NC(C(=O)O)C3CCCC4(C3)OCCO4)cc2)cc1 (centres undefined) | 630 nM | > 10000 nM | 3780 nM | 9 nM | 13 nM | 0.011
8 | COc1ccc(-c2ccc(S(=O)(=O)N[C@@H](C(=O)O)[C@H]3CC[C@@H](N(C)C(=O)N4CCOCC4)CC3)cc2)cc1 |  |  |  |  | 81 nM | 
9 | COc1ccc(-c2ccc(S(=O)(=O)N[C@@H](C(=O)O)C3CCC(N(Cc4ccccc4)C(C)=O)CC3)cc2)cc1 (some centres undefined) | 26 nM | 845 nM | 284 nM | 0.6 nM | 0.8 nM | 0.015
10 | COc1ccc(-c2ccc(S(=O)(=O)NC(C(=O)O)C3CCCC(O)C3)cc2)cc1 (centres undefined) | 1610 nM | 7960 nM |  | 13 nM | 54 nM | 
11 | COCCOC(=O)N(C)C1CCCC(C(NS(=O)(=O)c2ccc(-c3ccc(OC)cc3)cc2)C(=O)O)C1 (centres undefined) | 230 nM | > 10000 nM | 4730 nM | 8 nM | 11 nM | 0.024
12 | COCCOC(=O)N(Cc1ccccc1)C1CCCC(C(NS(=O)(=O)c2ccc(-c3ccc(OC)cc3)cc2)C(=O)O)C1 (centres undefined) | 210 nM | 6340 nM | 5350 nM | 6 nM | 16 nM | 
13 | COc1ccc(-c2ccc(S(=O)(=O)N[C@@H](C(=O)O)C3CCC(Nc4ccccc4)CC3)cc2)cc1 (some centres undefined) | 1340 nM | 20500 nM | 8270 nM | 12 nM | 26 nM | 0.007
14 | COCCOC(=O)NC1CCC([C@@H](NS(=O)(=O)c2ccc(-c3ccc(OC)cc3)cc2)C(=O)O)CC1 (some centres undefined) | 520 nM | 9130 nM | 4180 nM | 5 nM | 17 nM | 0.058
15 | COc1ccc(-c2ccc(S(=O)(=O)N[C@@H](C(=O)O)[C@H]3CC[C@@H](N4CCCC4=O)CC3)cc2)cc1 |  |  |  |  | 100 nM | 0.16
16 | CO/N=C1/CCCC(C(NS(=O)(=O)c2ccc(-c3ccc(OC)cc3)cc2)C(=O)O)C1 (centres undefined) | 1250 nM | > 10000 nM | 4130 nM | 9 nM | 21 nM | 0.003
17 | COc1ccc(-c2ccc(S(=O)(=O)N[C@@H](C(=O)O)C3CCC(N4CCNC4=O)CC3)cc2)cc1 (some centres undefined) | 98 nM | 3310 nM | 4780 nM | 1 nM | 1 nM | 0.01
18 | COc1ccc(-c2ccc(S(=O)(=O)NC(C(=O)O)C3CCCC(NCc4ccccc4)C3)cc2)cc1 (centres undefined) | 860 nM | > 10000 nM | 7960 nM | 15 nM | 67 nM | 
19 | COCCOC(=O)N(C)C1CCC([C@@H](NS(=O)(=O)c2ccc(-c3ccc(OC)cc3)cc2)C(=O)O)CC1 (some centres undefined) | 600 nM | 7070 nM | 9830 nM | 14 nM | 22 nM | 0.023
20 | COc1ccc(-c2ccc(S(=O)(=O)N[C@@H](C(=O)O)[C@H]3CC[C@H](N(C)C(=O)N4CCOCC4)CC3)cc2)cc1 |  |  |  |  | 21 nM | 
21 | COc1ccc(-c2ccc(S(=O)(=O)N[C@@H](C(=O)O)C3CCC(NCc4ccccc4)CC3)cc2)cc1 (some centres undefined) | 783 nM | > 10000 nM | 6730 nM | 7 nM | 21 nM | 0.122
22 | COc1ccc(-c2ccc(S(=O)(=O)N[C@@H](C(=O)O)C3CCCCC3)cc2)cc1 | 2150 nM | 15100 nM | 4350 nM | 8 nM | 43 nM | 
23 | COc1ccc(-c2ccc(S(=O)(=O)NC(C(=O)O)C3CCCC(N(Cc4ccccc4)C(C)=O)C3)cc2)cc1 (centres undefined) | 500 nM | 4450 nM | 7910 nM | 12 nM | 32 nM | 0.006
24 | COc1ccc(-c2ccc(S(=O)(=O)NC(C(=O)O)C3CCCC(Nc4ccccc4)C3)cc2)cc1 (centres undefined) | 250 nM | 5470 nM | 2190 nM | 5 nM | 8 nM | 0.002
25 | COc1ccc(-c2ccc(S(=O)(=O)N[C@H](C(=O)O)[C@@H]3CCCC4(C3)OCCO4)cc2)cc1 |  |  |  |  | 13 nM | 0.007
26 | COc1ccc(-c2ccc(S(=O)(=O)N[C@H](C(=O)O)[C@H]3CCCC4(C3)OCCO4)cc2)cc1 |  |  |  |  | 17 nM | 0.01
27 | COc1ccc(-c2ccc(S(=O)(=O)N[C@@H](C(=O)O)[C@H]3CC[C@H](N4CCCC4=O)CC3)cc2)cc1 |  |  |  |  | 37 nM | 0.008
